# Laboratory results reported in PubChem BioAssay (NCI).
#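 Method: 48-hour compound exposure of cells in 96-well plates, five concentrations, linear interpolation of endpoints. GI50 marks 50% less growth. TGI: total growth inhibition.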
# Tests used:
# Test in all cases: NCI-60 cell line screen, 48 h
# K-562 leukemia = tested on: K-562 leukemia
# SK-MEL-2 melanoma = tested on: SK-MEL-2 melanoma
# RPMI-8226 leukemia = tested on: RPMI-8226 leukemia
# SK-MEL-28 melanoma = tested on: SK-MEL-28 melanoma
# SK-MEL-5 melanoma = tested on: SK-MEL-5 melanoma
# PC-3 prostate = tested on: PC-3 prostate
# M14 melanoma = tested on: M14 melanoma
# CAKI-1 renal = tested on: CAKI-1 renal
# NCI-H522 lung = tested on: NCI-H522 lung
# SW-620 colon = tested on: SW-620 colon
# SF-268 CNS = tested on: SF-268 CNS
# EKVX NSCLC = tested on: EKVX NSCLC
# NCI-H226 lung = tested on: NCI-H226 lung
# NCI/ADR-RES ovarian = tested on: NCI/ADR-RES ovarian
# UO-31 renal = tested on: UO-31 renal
# ACHN renal = tested on: ACHN renal
# U251 CNS = tested on: U251 CNS
# HCT-15 colon = tested on: HCT-15 colon
# TK-10 renal = tested on: TK-10 renal
# SF-539 CNS = tested on: SF-539 CNS
# MDA-MB-435 = tested on: MDA-MB-435
# IGROV1 ovarian = tested on: IGROV1 ovarian
# HOP-92 NSCLC = tested on: HOP-92 NSCLC
# CCRF-CEM leukemia = tested on: CCRF-CEM leukemia
# SK-OV-3 ovarian = tested on: SK-OV-3 ovarian
# COLO 205 colon = tested on: COLO 205 colon
# HT29 colon = tested on: HT29 colon
# BT-549 breast = tested on: BT-549 breast
# OVCAR-8 ovarian = tested on: OVCAR-8 ovarian
# A549 NSCLC = tested on: A549 NSCLC
# NCI-H460 lung = tested on: NCI-H460 lung
# OVCAR-3 ovarian = tested on: OVCAR-3 ovarian
# OVCAR-4 ovarian = tested on: OVCAR-4 ovarian
# NCI-H23 lung = tested on: NCI-H23 lung
# MCF7 breast = tested on: MCF7 breast
# HCT-116 colon = tested on: HCT-116 colon
# UACC-257 melanoma = tested on: UACC-257 melanoma
# MDA-MB-231 breast = tested on: MDA-MB-231 breast
# LOX IMVI melanoma = tested on: LOX IMVI melanoma
# SNB-75 CNS = tested on: SNB-75 CNS
# MOLT-4 leukemia = tested on: MOLT-4 leukemia
# SN12C renal = tested on: SN12C renal
# SF-295 CNS = tested on: SF-295 CNS
# RXF 393 renal = tested on: RXF 393 renal
# T-47D breast = tested on: T-47D breast
# UACC-62 melanoma = tested on: UACC-62 melanoma
# SR leukemia = tested on: SR leukemia
# MALME-3M melanoma = tested on: MALME-3M melanoma
# KM12 colon = tested on: KM12 colon
# OVCAR-5 ovarian = tested on: OVCAR-5 ovarian
# HOP-62 NSCLC = tested on: HOP-62 NSCLC
# 786-0 renal = tested on: 786-0 renal
# HL-60(TB) leukemia = tested on: HL-60(TB) leukemia
# SNB-19 CNS = tested on: SNB-19 CNS
# DU-145 prostate = tested on: DU-145 prostate
# HS 578T breast = tested on: HS 578T breast
# HCC-2998 colon = tested on: HCC-2998 colon
# A498 renal = tested on: A498 renal
structure (smiles),measurement,setting,value
CN(C)c1ccc(/C=N\NC(=O)CSCC(=O)N/N=C/c2ccc(N(C)C)cc2)cc1,TGI,K-562 leukemia,> 100000 nM
same,TGI,SK-MEL-2 melanoma,> 100000 nM
same,TGI,RPMI-8226 leukemia,> 100000 nM
same,TGI,SK-MEL-28 melanoma,> 100000 nM
same,TGI,SK-MEL-5 melanoma,> 100000 nM
same,TGI,PC-3 prostate,> 100000 nM
same,TGI,M14 melanoma,> 100000 nM
same,TGI,CAKI-1 renal,> 100000 nM
same,TGI,NCI-H522 lung,> 100000 nM
same,TGI,SW-620 colon,> 100000 nM
same,TGI,SF-268 CNS,> 100000 nM
same,TGI,EKVX NSCLC,> 100000 nM
same,TGI,NCI-H226 lung,> 100000 nM
same,TGI,NCI/ADR-RES ovarian,> 100000 nM
same,TGI,UO-31 renal,> 100000 nM
same,TGI,ACHN renal,> 100000 nM
same,TGI,U251 CNS,> 100000 nM
same,TGI,HCT-15 colon,53200 nM
same,TGI,TK-10 renal,> 100000 nM
same,TGI,SF-539 CNS,> 100000 nM
same,TGI,MDA-MB-435,> 100000 nM
same,TGI,IGROV1 ovarian,> 100000 nM
same,TGI,HOP-92 NSCLC,> 100000 nM
same,TGI,CCRF-CEM leukemia,> 100000 nM
same,TGI,SK-OV-3 ovarian,> 100000 nM
same,TGI,COLO 205 colon,> 100000 nM
same,TGI,HT29 colon,> 100000 nM
same,TGI,BT-549 breast,80400 nM
same,TGI,OVCAR-8 ovarian,> 100000 nM
same,TGI,A549 NSCLC,> 100000 nM
same,TGI,NCI-H460 lung,> 100000 nM
same,TGI,OVCAR-3 ovarian,> 100000 nM
same,TGI,OVCAR-4 ovarian,> 100000 nM
same,TGI,NCI-H23 lung,> 100000 nM
same,TGI,MCF7 breast,> 100000 nM
same,TGI,HCT-116 colon,> 100000 nM
same,TGI,UACC-257 melanoma,> 100000 nM
same,TGI,MDA-MB-231 breast,58600 nM
same,TGI,LOX IMVI melanoma,> 100000 nM
same,TGI,SNB-75 CNS,> 100000 nM
same,TGI,MOLT-4 leukemia,> 100000 nM
same,TGI,SN12C renal,> 100000 nM
same,TGI,SF-295 CNS,> 100000 nM
same,TGI,RXF 393 renal,81500 nM
same,TGI,T-47D breast,88600 nM
same,TGI,UACC-62 melanoma,> 100000 nM
same,TGI,SR leukemia,> 100000 nM
same,TGI,MALME-3M melanoma,> 100000 nM
same,TGI,KM12 colon,> 100000 nM
same,TGI,OVCAR-5 ovarian,> 100000 nM
same,TGI,HOP-62 NSCLC,> 100000 nM
same,TGI,786-0 renal,> 100000 nM
same,TGI,HL-60(TB) leukemia,> 100000 nM
same,TGI,SNB-19 CNS,> 100000 nM
same,TGI,DU-145 prostate,> 100000 nM
same,TGI,HS 578T breast,82100 nM
CN1CCN(Cc2ccc(NC(=O)c3cncc(C#Cc4cnc(N)c5ccncc45)c3)cc2C(F)(F)F)CC1,GI50,K-562 leukemia,14.6 nM
same,TGI,K-562 leukemia,5210 nM
same,GI50,SK-MEL-2 melanoma,300 nM
same,TGI,SK-MEL-2 melanoma,1070 nM
same,GI50,RPMI-8226 leukemia,1090 nM
same,TGI,RPMI-8226 leukemia,5770 nM
same,GI50,SK-MEL-28 melanoma,245 nM
same,TGI,SK-MEL-28 melanoma,2180 nM
same,GI50,SK-MEL-5 melanoma,1180 nM
same,TGI,SK-MEL-5 melanoma,3930 nM
same,GI50,PC-3 prostate,1770 nM
same,TGI,PC-3 prostate,9180 nM
same,GI50,M14 melanoma,141 nM
same,TGI,M14 melanoma,547 nM
same,GI50,CAKI-1 renal,1590 nM
same,TGI,CAKI-1 renal,> 16300 nM
same,GI50,NCI-H522 lung,897 nM
same,TGI,NCI-H522 lung,8510 nM
same,GI50,SW-620 colon,418 nM
same,TGI,SW-620 colon,3460 nM
same,GI50,SF-268 CNS,972 nM
same,TGI,SF-268 CNS,6890 nM
same,GI50,EKVX NSCLC,1440 nM
same,TGI,EKVX NSCLC,> 16800 nM
same,GI50,NCI/ADR-RES ovarian,6740 nM
same,TGI,NCI/ADR-RES ovarian,16500 nM
same,GI50,UO-31 renal,918 nM
same,TGI,UO-31 renal,2490 nM
same,GI50,HCC-2998 colon,1780 nM
same,TGI,HCC-2998 colon,7890 nM
same,GI50,ACHN renal,581 nM
same,TGI,ACHN renal,4020 nM
same,GI50,U251 CNS,782 nM
same,TGI,U251 CNS,7650 nM
same,GI50,HCT-15 colon,1420 nM
same,TGI,HCT-15 colon,5840 nM
same,GI50,TK-10 renal,1560 nM
same,TGI,TK-10 renal,7840 nM
same,GI50,SF-539 CNS,484 nM
same,TGI,SF-539 CNS,2030 nM
same,GI50,MDA-MB-435,218 nM
same,TGI,MDA-MB-435,4000 nM
same,GI50,IGROV1 ovarian,331 nM
same,TGI,IGROV1 ovarian,2890 nM
same,GI50,HOP-92 NSCLC,306 nM
same,TGI,HOP-92 NSCLC,1930 nM
same,GI50,CCRF-CEM leukemia,554 nM
same,TGI,CCRF-CEM leukemia,11600 nM
same,GI50,SK-OV-3 ovarian,687 nM
same,TGI,SK-OV-3 ovarian,> 50000 nM
same,GI50,COLO 205 colon,181 nM
same,TGI,COLO 205 colon,1950 nM
same,GI50,HT29 colon,212 nM
same,TGI,HT29 colon,6420 nM
same,GI50,BT-549 breast,2220 nM
same,TGI,BT-549 breast,> 46600 nM
same,GI50,A498 renal,279 nM
same,TGI,A498 renal,1700 nM
same,GI50,OVCAR-8 ovarian,1420 nM
same,TGI,OVCAR-8 ovarian,8860 nM
same,GI50,A549 NSCLC,1380 nM
same,TGI,A549 NSCLC,6920 nM
same,GI50,NCI-H460 lung,374 nM
same,TGI,NCI-H460 lung,5810 nM
same,GI50,OVCAR-3 ovarian,1530 nM
same,TGI,OVCAR-3 ovarian,7510 nM
same,GI50,OVCAR-4 ovarian,283 nM
same,TGI,OVCAR-4 ovarian,6320 nM
same,GI50,NCI-H23 lung,900 nM
same,TGI,NCI-H23 lung,6790 nM
same,GI50,MCF7 breast,1930 nM
same,TGI,MCF7 breast,8920 nM
same,GI50,HCT-116 colon,442 nM
same,TGI,HCT-116 colon,3040 nM
same,GI50,UACC-257 melanoma,573 nM
same,TGI,UACC-257 melanoma,4680 nM
same,GI50,MDA-MB-231 breast,307 nM
same,TGI,MDA-MB-231 breast,1260 nM
same,GI50,LOX IMVI melanoma,176 nM
same,TGI,LOX IMVI melanoma,707 nM
same,GI50,SNB-75 CNS,898 nM
same,TGI,SNB-75 CNS,5080 nM
same,GI50,MOLT-4 leukemia,328 nM
same,TGI,MOLT-4 leukemia,8680 nM
same,GI50,SN12C renal,837 nM
same,TGI,SN12C renal,> 50000 nM
same,GI50,SF-295 CNS,2160 nM
same,TGI,SF-295 CNS,> 50000 nM
same,GI50,RXF 393 renal,516 nM
same,TGI,RXF 393 renal,2280 nM
same,GI50,T-47D breast,1750 nM
same,TGI,T-47D breast,12500 nM
same,GI50,UACC-62 melanoma,227 nM
same,TGI,UACC-62 melanoma,1860 nM
same,GI50,SR leukemia,567 nM
same,TGI,SR leukemia,> 24500 nM
same,GI50,MALME-3M melanoma,106 nM
same,TGI,MALME-3M melanoma,404 nM
same,GI50,KM12 colon,27 nM
same,TGI,KM12 colon,5520 nM
same,GI50,OVCAR-5 ovarian,855 nM
same,TGI,OVCAR-5 ovarian,> 50000 nM
same,GI50,HOP-62 NSCLC,1030 nM
same,TGI,HOP-62 NSCLC,> 16600 nM
same,GI50,786-0 renal,1730 nM
same,TGI,786-0 renal,7480 nM
same,GI50,HL-60(TB) leukemia,387 nM
same,TGI,HL-60(TB) leukemia,2890 nM
same,GI50,SNB-19 CNS,3230 nM
same,TGI,SNB-19 CNS,9620 nM
same,GI50,DU-145 prostate,527 nM
same,TGI,DU-145 prostate,6670 nM
same,GI50,HS 578T breast,286 nM
same,TGI,HS 578T breast,1980 nM
